From patent US12227513B2, “Salt and crystalline form of furopyrimidine compound and pharmaceutical use thereof” (TIUMBIO CO., LTD., priority 2018, dated 2025)
Structures can show the parent of a compound that is named as a salt.

Tests used:
Type in all cases: physicochemical
[1] = Chemical purity after standing at 80° C. (HPLC; lactam-based related substances and main compound); conditions: for Increase in related substances: After 20 hours at 80° C., peak area of lactam-based related substances relative to main compound (HPLC); for Residual amount of main compound: After 21 days at 80° C., HPLC
Protocol: (§1) Each of the salts (dibesylate salt, dihydrochloride salt, sodium salt, potassium salt) prepared in the above examples was left to stand at 80° C. for 20 hours, and then an amount of change in related substances was measured. In addition, each of the salts was left to stand at 80° C. for 21 days, and then a residual amount of the main compound (compound of Formula 1) was measured. For measurement of the related substances and the main compound, samples were taken before and after exposure to 80° C., dissolved in a diluted solution at a concentration of 1 mg/mL, and then subjected to high-performance liquid chromatography (HPLC). From the resulting data, an increase in related substances was calculated by measuring a peak area of lactam-based related substances relative to a peak area of the main compound. In addition, for comparison, the same test was also carried out for the free base of the compound of Formula 1.

[2] = Evaluation of stability of crystal form (PXRD after drying in vacuo at 50° C.); conditions: after being dried in vacuo at 50° C.
Protocol: The solid product (crystalline form A) obtained in Example 1 was subjected to powder X-ray diffraction (PXRD). The results are shown in FIG. 1 and Table 8 below. • Instrument: Maker Bruker AXS, D8 FOCUS • Conditions: 40 kV, 30 mA, 2θ/θ scan range of 3° to 50°
The solid product (crystalline form A) obtained in Example 1 was dried in vacuo at 50° C., and then subjected to powder X-ray diffraction as described above. The results are illustrated in FIG. 4.
On the other hand, using 1,4-dioxane as a solvent, a solid product (crystalline form B) was obtained in a similar manner as in Example 1, and subjected to powder X-ray diffraction as described above.

[3] = Chemical purity after storage for 3 months at 40° C. and 75% relative humidity (HPLC)
Protocol: as §1
In addition, in a similar manner, the dibesylate salt prepared in the above example was stored for 3 months (at 40° C. and 75% relative humidity), and amounts of change in lactam-based related substances and main compound were measured.

[4] = Water solubility (distilled water at 25° C., HPLC); conditions: supersaturated solution
Protocol: The water solubility was obtained as follows. Each of the free base and the dibesylate salt was dissolved in distilled water at 25° C. to make it supersaturated. Then, the solution was taken and diluted 20-fold with a diluent for dissolution. Then, the resultant was subjected to high-performance liquid chromatography (HPLC). In the resulting data, the dissolved amount was calculated from a peak area of the main compound.

[5] = Hygroscopicity (weight increase after 1 week at 25° C. and 60% or 90% relative humidity); conditions: weight increase relative to the initial weight
Protocol: Each of the salts (dibesylate salt, dihydrochloride salt, dioxalate salt, sodium salt, potassium salt) prepared in the above examples was left to stand at 25° C. and 60% or 90% relative humidity for 1 week, and a hygroscopicity thereof was measured. Here, the hygroscopicity was measured as a percentage of weight increase, which was measured after the hygroscopicity test, relative to the initial weight.

[6] = Stability of drug product (oral capsule, 50° C. and 80% humidity for 3 weeks, HPLC); conditions: 50° C. and 80% relative humidity for 3 weeks
Protocol: Using each of the salts (dibesylate salt, dihydrochloride salt, sodium salt, potassium salt) prepared in the above examples, a drug product was prepared in the form of an oral capsule with the excipient composition as shown in Table 6 below. The drug product was left to stand at 50° C. and 80% humidity for 3 weeks, and then an amount of change in related substances was measured. For measurement of related substances, the contents were separated from the capsule, and then all of them were placed in a diluted solution so that the active ingredient was brought to a concentration of 1 mg/mL. Shaking was performed for 5 minutes. The supernatant was taken and filtered. The filtrate was taken and subjected to high-performance liquid chromatography (HPLC).
From the resulting data, percentages of a peak area of the main compound (active ingredient) and a peak area of the lactam-based related substances were measured. In addition, for comparison, the same test was also carried out for the free base of the compound of Formula 1.

[7] = Physical state of the product as obtained (foam, moistening); conditions: observation in words
Excerpt: First, the compound of Formula 1 was not solidified, which posed great difficulty in controlling a residual solvent.

[8] = After 3 months at 40° C. and 75% relative humidity

Increase in related substances [1] [%]	Residual amount of main compound [1] [%]	Hygroscopicity ([5]; 60% RH) [wt %]	Hygroscopicity ([5]; 90% RH) [wt %]	SMILES	further results
0.0	99.6	0.06	0.9	O=C(O)CCCN[C@@H](Cn1c(=O)c2c(n(Cc3c(F)cccc3C(F)(F)F)c1=O)COC21CCN(Cc2ccc(C(F)(F)F)o2)CC1)c1ccccc1 [Dibesylate salt]	Increase in related substances ([1]; listed as dibesylate salt): did not generate any related substances; Stability of crystal structure (PXRD) ([2]; listed as crystalline form A): maintained the same crystal structure as its initial one; Chemical purity: Related substances [3, 8]: 0.03%; Chemical purity: main compound (Dibesylate salt) [3, 8]: 99.6%; Chemical purity: Related substances ([3]; Initial): 0.02%; Chemical purity: main compound (Dibesylate salt) ([3]; Initial): 99.7%; Water solubility (25° C.) [4]: 25.77 mg/mL; Water solubility (25° C.) ([4]; listed as dibesylate salt): greatly improved water solubility; Hygroscopicity ([5]; 90% RH, listed as dibesylate salt): very low hygroscopicity; Stability of drug product (in words) [6]: very good stability
0.9	69.4	2.1	16	O=C(O)CCCN[C@@H](Cn1c(=O)c2c(n(Cc3c(F)cccc3C(F)(F)F)c1=O)COC21CCN(Cc2ccc(C(F)(F)F)o2)CC1)c1ccccc1 [Dihydrochloride salt]	–
–	–	3.5	19	O=C(O)CCCN[C@@H](Cn1c(=O)c2c(n(Cc3c(F)cccc3C(F)(F)F)c1=O)COC21CCN(Cc2ccc(C(F)(F)F)o2)CC1)c1ccccc1 [Dioxalate salt]	–
79.0	1.4	–	–	O=C(O)CCCN[C@@H](Cn1c(=O)c2c(n(Cc3c(F)cccc3C(F)(F)F)c1=O)COC21CCN(Cc2ccc(C(F)(F)F)o2)CC1)c1ccccc1 [Free base, (R)-4-((2-(1-(2-fluoro-6-(trifluoromethyl)benzyl)-2,4-dioxo-1′-((5-(trifluoromethyl)furan-2-yl)methyl)-1H-spiro[furo[3,4-d]pyrimidine-5,4′-piperidine]-3 (2H,4H,7H)-yl)-1-phenylethyl)amino)butanoic acid]	Increase in related substances ([1]; listed as free base): about 79%; Moistening of the product obtained in the form of a foam [7]: easily moistened and turned into a sticky oil form; Water solubility (25° C.) [4]: 0.19 mg/mL; Water solubility (25° C.) ([4]; listed as free base): low water solubility
0.4	72.6	9.2	38	O=C(O)CCCN[C@@H](Cn1c(=O)c2c(n(Cc3c(F)cccc3C(F)(F)F)c1=O)COC21CCN(Cc2ccc(C(F)(F)F)o2)CC1)c1ccccc1 [Potassium salt]	–
0.6	77.0	8.7	35	O=C(O)CCCN[C@@H](Cn1c(=O)c2c(n(Cc3c(F)cccc3C(F)(F)F)c1=O)COC21CCN(Cc2ccc(C(F)(F)F)o2)CC1)c1ccccc1 [Sodium salt]	–
–	–	–	–	O=C(O)CCCN[C@@H](Cn1c(=O)c2c(n(Cc3c(F)cccc3C(F)(F)F)c1=O)COC21CCN(Cc2ccc(C(F)(F)F)o2)CC1)c1ccccc1 [crystalline form B]	Stability of crystal structure (PXRD) [2]: did not maintain some of its initial crystal structure
–	–	–	–	O=C(O)CCCN[C@@H](Cn1c(=O)c2c(n(Cc3c(F)cccc3C(F)(F)F)c1=O)COC21CCN(Cc2ccc(C(F)(F)F)o2)CC1)c1ccccc1 [diphosphate salt, reference compound]	Moistening of the product obtained in the form of a foam [7]: easily moistened and turned into a sticky oil form
